The source of these data is the supplement of paper PMC11061612.

Assay in all cases: combination Emax (second highest fraction inhibited in the dose matrix, 72 h); higher = more inhibition; extreme values may be limits of the assay
Experiment [1] relates to CAL-29 (Bladder Carcinoma). In a few lines: (§1)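 Bliss excess equals the observed combination effect minus the expected value EA + EB − EA·EB, where EA and EB are the effects of each agent alone. Combination Emax is the second-highest inhibition within the matrix. Inhibition was scaled from CellTiter-Glo 2.0 luminescence, with 0 set by vehicle wells and 1 by blank wells, after 72 hours of two-drug dosing of cells plated in 1536-well plates.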

The subject of experiment [2] is TT2609-C02 (Thyroid Gland Carcinoma). In a few lines: as §1
For experiment [3], the system named is CAPAN-2 (Pancreatic Carcinoma). In a few lines: as §1
In another experiment the test system is IGR-37 (Melanoma). In a few lines:
as §1

Experiment [4] concerns NCI-H1581 (Non-Small Cell Lung Carcinoma). The gist of the method: as §1
For experiment [5], the system named is JSC-1 (B-Cell Non-Hodgkin's Lymphoma). The gist of the method:
as §1

Another experiment relates to Hs-445 (Non-Cancerous). The gist of the method: as §1
The next experiment concerns GI-ME-N (Neuroblastoma). The gist of the method: as §1
Experiment [6] concerns CCK-81 (Colorectal Carcinoma). In a few lines:
as §1

Experiment [7] concerns COR-L311 (Small Cell Lung Carcinoma). In a few lines:
as §1

Experiment [8] deals with PANC-10-05 (Pancreatic Carcinoma). The gist of the method: as §1
Experiment [9] has as its system MDST8 (Colorectal Carcinoma). In a few lines: as §1
For experiment [10], the system named is A549 (Lung Adenocarcinoma). In a few lines:
as §1

For a further experiment, the system named is PA-1 (Ovarian Carcinoma). In a few lines: as §1
For a further experiment, the system named is U-2-OS (Osteosarcoma). The gist of the method:
as §1

In a further experiment the test system is 8-MG-BA (Glioblastoma). The gist of the method:
as §1

Experiment [11] has as its system BICR22 (Oral Cavity Carcinoma). In a few lines:
as §1

In another experiment the test system is A498 (Kidney Carcinoma). The gist of the method: as §1
The test system of another experiment is LN-405 (Glioblastoma). In a few lines: as §1
Experiment [12] concerns KARPAS-422 (B-Cell Non-Hodgkin's Lymphoma). In a few lines:
as §1

SMILES strings stand for the structures.

For the compound `CN(C)CCCOc1ccc(-c2ccc3ncc4c(c3c2)n(C2CCOCC2)c(=O)n4C)cn1` [AZD0156] + O=C(c1cc(Cc2n[nH]c(=O)c3ccccc23)ccc1F)N1CCN(C(=O)C2CC2)CC1 [Olaparib] (first compound max 3 µM, partner max 3 µM), the “combination Emax” value in experiment [1] amounted to 0.319; in experiment [2], 0.152; in experiment [3], 0.291; in the experiment with IGR-37 (Melanoma), 0.194; in [4], 0.412; in experiment [5] it was 0.582. Besides, the “combination Emax” value in the experiment with Hs-445 (Non-Cancerous) was 0.174; with GI-ME-N (Neuroblastoma) it was 0.193; in experiment [6] it was 0.394; in experiment [7], 0.393; in [8], 0.343; in experiment [9], 0.361. Also, the “combination Emax” value in experiment [10] was 0.374; with PA-1 (Ovarian Carcinoma), 0.479; in the experiment with U-2-OS (Osteosarcoma), 0.201; in the experiment with 8-MG-BA (Glioblastoma), 0.4; in experiment [11], 0.135; in the experiment with A498 (Kidney Carcinoma), 0.316. Also, the “combination Emax” value in the experiment on LN-405 (Glioblastoma) worked out at 0.182; in [12] it was 0.56.
Consider `C=CCn1c(=O)c2cnc(Nc3ccc(N4CCN(C)CC4)cc3)nc2n1-c1cccc(C(C)(C)O)n1` [AZD1775] + O=C(c1cc(Cc2n[nH]c(=O)c3ccccc23)ccc1F)N1CCN(C(=O)C2CC2)CC1 [Olaparib] (first compound max 1 µM, partner max 10 µM), for which the “combination Emax” value worked out at 0.612 in experiment [1]; 0.358 in experiment [2]; 0.394 in experiment [3]; 0.776 in the experiment with IGR-37 (Melanoma); 0.568 in experiment [4]; 0.856 in experiment [5]. In addition, the “combination Emax” value with Hs-445 (Non-Cancerous) came out at 0.899; in the experiment with GI-ME-N (Neuroblastoma), 0.337; in experiment [6], 0.894; in experiment [7] it was 0.587; in [8], 0.465; in experiment [9] it was 0.408. For the same compound, the “combination Emax” value is 0.458 in [10]; 0.756 in the experiment with PA-1 (Ovarian Carcinoma); 0.637 in the experiment on U-2-OS (Osteosarcoma); 0.77 with 8-MG-BA (Glioblastoma); 0.508 in [11]; 0.51 in the experiment with A498 (Kidney Carcinoma). Further, the “combination Emax” value was found to be 0.176 with LN-405 (Glioblastoma) and 0.678 in experiment [12].
Turning to `CCN(CCO)CCCOc1ccc2c(Nc3cc(CC(=O)Nc4cccc(F)c4)[nH]n3)ncnc2c1` [AZD2811] + C=CCn1c(=O)c2cnc(Nc3ccc(N4CCN(C)CC4)cc3)nc2n1-c1cccc(C(C)(C)O)n1 [AZD1775] (first compound max 1 µM, partner max 1 µM), the “combination Emax” value in [1] amounted to 0.633; in experiment [2], 0.361; in experiment [3], 0.299; in the experiment on IGR-37 (Melanoma), 0.737; in experiment [4], 0.688; in [5], 0.809. Moreover, the “combination Emax” value with Hs-445 (Non-Cancerous) was 0.882; in the experiment on GI-ME-N (Neuroblastoma) it was 0.29; in [6], 0.849; in experiment [7], 0.592; in experiment [8], 0.354; in experiment [9], 0.465. Also, the “combination Emax” value in experiment [10] was 0.599; in the experiment on PA-1 (Ovarian Carcinoma), 0.767; in the experiment with U-2-OS (Osteosarcoma) it was 0.628; with 8-MG-BA (Glioblastoma) it was 0.744; in experiment [11], 0.468; in the experiment on A498 (Kidney Carcinoma) it was 0.458. The “combination Emax” value came to 0.199 in the experiment on LN-405 (Glioblastoma) and 0.569 in [12].
On to `CCN(CCO)CCCOc1ccc2c(Nc3cc(CC(=O)Nc4cccc(F)c4)[nH]n3)ncnc2c1` [AZD2811] + C[C@@H]1COCCN1C2=NC(=NC(=C2)C3(CC3)[S@](=N)(=O)C)C4=C5C=CNC5=NC=C4 [AZD6738] (first compound max 1 µM, 7x7, partner max 10 µM), for which the “combination Emax” value in [1] was 0.67; in experiment [2], 0.331; in experiment [3] it was 0.29; in the experiment on IGR-37 (Melanoma) it was 0.711; in experiment [4], 0.474; in experiment [5] it was 0.744. Moreover, the “combination Emax” value is 0.832 in the experiment with Hs-445 (Non-Cancerous); 0.552 in the experiment on GI-ME-N (Neuroblastoma); 0.891 in [6]; 0.577 in experiment [7]; 0.389 in experiment [8]; 0.724 in [9]. In addition, the “combination Emax” value was 0.775 in experiment [10]; 0.795 in the experiment with PA-1 (Ovarian Carcinoma); 0.642 in the experiment on U-2-OS (Osteosarcoma); 0.785 in the experiment on 8-MG-BA (Glioblastoma); 0.729 in experiment [11]; 0.647 in the experiment with A498 (Kidney Carcinoma). Moreover, the “combination Emax” value with LN-405 (Glioblastoma) worked out at 0.46; in experiment [12] it was 0.565.
`CCN(CCO)CCCOc1ccc2c(Nc3cc(CC(=O)Nc4cccc(F)c4)[nH]n3)ncnc2c1` [AZD2811] + O=C(c1cc(Cc2n[nH]c(=O)c3ccccc23)ccc1F)N1CCN(C(=O)C2CC2)CC1 [Olaparib] (first compound max 1 µM, 7x7, partner max 10 µM): the “combination Emax” value in [1] came to 0.288; in experiment [2] it was 0.299; in experiment [3], 0.184; in the experiment with IGR-37 (Melanoma), 0.0609; in [4], 0.344; in [5], 0.213. The “combination Emax” value in the experiment on Hs-445 (Non-Cancerous) was 0.426; in the experiment with GI-ME-N (Neuroblastoma) it was 0.196; in experiment [6] it was 0.254; in [7], 0.673; in [8] it was 0.181; in [9], 0.338. For the same compound, the “combination Emax” value was 0.58 in experiment [10]; 0.545 in the experiment with PA-1 (Ovarian Carcinoma); 0.219 in the experiment with U-2-OS (Osteosarcoma); 0.52 in the experiment with 8-MG-BA (Glioblastoma); 0.362 in experiment [11]; 0.241 in the experiment on A498 (Kidney Carcinoma). For the same compound, the “combination Emax” value with LN-405 (Glioblastoma) was 0.192; in [12] it was 0.375.
Take `CN(CCO)CC[C@H](CSc1ccccc1)Nc1ccc(S(=O)(=O)NC(=O)c2ccc(N3CCC([C@@H](O)c4ccccc4-c4ccc(Cl)cc4)CC3)cc2)cc1S(=O)(=O)C(F)(F)F` [AZD4320] + C1CN(CCC1(C(=O)N[C@@H](CCO)C2=CC=C(C=C2)Cl)N)C3=NC=NC4=C3C=CN4 [Capivasertib] (first compound max 1 µM, 7x7, partner max 3 µM): the “combination Emax” value in experiment [1] was determined as 0.221; in experiment [2], 0.0697; in [3], 0.576; with IGR-37 (Melanoma), 0.186; in experiment [4] it was 0.0979; in experiment [5] it was 0.124. Also, the “combination Emax” value turned out to be 0.805 in the experiment on Hs-445 (Non-Cancerous); 0.153 with GI-ME-N (Neuroblastoma); 0.135 in [6]; 1 in experiment [7]; 0.265 in [8]; 0.914 in experiment [9]. The “combination Emax” value worked out at 0.354 in [10]; 0.743 in the experiment on PA-1 (Ovarian Carcinoma); 0.225 with U-2-OS (Osteosarcoma); 0.291 in the experiment with 8-MG-BA (Glioblastoma); 0.684 in experiment [11]; 0.57 with A498 (Kidney Carcinoma). The “combination Emax” value with LN-405 (Glioblastoma) was found to be 0.45; in experiment [12], 0.989.
